Here are results for 47 compounds from the Biogen ADME set (Fang et al. 2023).

By aqueous solubility is commonly meant the concentration that dissolves in the medium under given conditions. Higher therefore signals a readily soluble substance.

≈ marks a conversion by molar mass, not a printed value.

The conditions of the series: for aqueous solubility: pH 6.8.

Turning to `CC(COc1ccccc1Cc1ccccc1)N1CCCCC1` (configuration not stated), the MDR1-MDCK efflux ratio was 1.3; the intrinsic clearance, human liver microsomes was 12.5 mL/min/kg; the intrinsic clearance, rat liver microsomes was determined as 2880 mL/min/kg.
Regarding `CCN(c1cc(-c2ccc(CN3CCOCC3)cc2)cc(C(=O)NCc2c(C)cc(C)nc2O)c1C)C1CCOCC1`, the MDR1-MDCK efflux ratio was 60.3; the intrinsic clearance, human liver microsomes amounted to 131 mL/min/kg; the intrinsic clearance, rat liver microsomes came to 525 mL/min/kg; the aqueous solubility came out at 49.2 µg/mL (≈ 85.9 µM).
Consider `Cc1ccc(C)c(OCCC(=O)N2CCC(n3c(=O)[nH]c4ccccc43)CC2)c1`, for which the intrinsic clearance, human liver microsomes turned out to be 421 mL/min/kg and the intrinsic clearance, rat liver microsomes was found to be 6460 mL/min/kg.
In the case of `O=C(CC1CCNCC1)NCCc1ccccc1F`, the MDR1-MDCK efflux ratio came out at 8.79; the intrinsic clearance, human liver microsomes is not above 4.74 mL/min/kg; the intrinsic clearance, rat liver microsomes worked out at 21.9 mL/min/kg; the aqueous solubility came to 58.5 µg/mL (≈ 221 µM).
Regarding `O=C(CSc1ccc(F)cc1)N1CCCC1`, the MDR1-MDCK efflux ratio is 0.746; the intrinsic clearance, human liver microsomes was found to be 9.35 mL/min/kg; the intrinsic clearance, rat liver microsomes was 117 mL/min/kg; the aqueous solubility is 36.2 µg/mL (≈ 151 µM).
In turn, `CCc1cccc(NC(=O)COC(=O)c2cnc(C)cn2)c1` came in with an aqueous solubility of 56.1 µg/mL (≈ 187 µM).
On to `COc1cccc(CC(=O)N2CCOC(c3cc(Nc4nnc(C)s4)cc(C)n3)C2)c1` (configuration not stated), for which the MDR1-MDCK efflux ratio is 10.7; the intrinsic clearance, human liver microsomes was 68.6 mL/min/kg; the intrinsic clearance, rat liver microsomes stood at 308 mL/min/kg.
The matching figures for `Cc1ccc(NC(=O)OCC(F)(F)F)cn1`: 0.584, not above 4.74 mL/min/kg and 35.2 mL/min/kg.
The matching figures for `Nc1nnc(SCCSC2CCCCC2)n1C1CC1`: 3.81, 48.5 mL/min/kg and 582 mL/min/kg.
Consider `Cc1nccc(-c2cccc(NCC(=O)NCC(=O)N3CCCC3)c2)n1`, for which the MDR1-MDCK efflux ratio was 43.4; the intrinsic clearance, human liver microsomes was not above 4.74 mL/min/kg; the intrinsic clearance, rat liver microsomes turned out to be 16.2 mL/min/kg; the aqueous solubility stood at 69.5 µg/mL (≈ 197 µM).
In the case of `CCCCN1CCN(C(=O)c2cccc(-c3ccc(CO)cc3)c2)CC1`, the MDR1-MDCK efflux ratio was 1.13; the intrinsic clearance, human liver microsomes was 26.6 mL/min/kg; the intrinsic clearance, rat liver microsomes was 269 mL/min/kg.
With `COc1cccc(C(=O)C[n+]2cc(-c3ccc(F)cc3)n(C)c2N)c1`, the MDR1-MDCK efflux ratio is 26.3; the intrinsic clearance, human liver microsomes was not above 4.74 mL/min/kg; the intrinsic clearance, rat liver microsomes came to 45.2 mL/min/kg; the aqueous solubility came out at 74.1 µg/mL.
In the same order, the values of `CN(CCC1CCCCC1)C(=O)c1ccon1` are 0.597, 40.4 mL/min/kg, 972 mL/min/kg and 69.9 µg/mL (≈ 296 µM).
The matching figures for `COc1ccccc1CC(=O)Nc1ncc(C)s1`: 0.674, 17.7 mL/min/kg, 261 mL/min/kg and 6.6 µg/mL (≈ 25.2 µM).
The matching figures for `CS(=O)(=O)CCNc1ccc2ccc(F)cc2n1`: 0.652, 15.6 mL/min/kg, 76.4 mL/min/kg and 53.5 µg/mL (≈ 199 µM).
Take `Cc1cnc(C(C)(C)NCC(=O)N(C)C)s1`: the MDR1-MDCK efflux ratio is 1.86; the intrinsic clearance, human liver microsomes was not above 4.74 mL/min/kg; the intrinsic clearance, rat liver microsomes turned out to be 20.9 mL/min/kg.
In the case of `Cc1nccc(-c2cccc(NCc3cc(C)on3)c2)n1`, the MDR1-MDCK efflux ratio came to 0.536; the intrinsic clearance, human liver microsomes turned out to be 59.6 mL/min/kg; the intrinsic clearance, rat liver microsomes is 350 mL/min/kg; the aqueous solubility is 46.6 µg/mL (≈ 166 µM).
As for `CCCc1ncncc1C(=O)NCc1noc(C2CC2)n1`, the MDR1-MDCK efflux ratio worked out at 1.73; the intrinsic clearance, human liver microsomes was not above 4.74 mL/min/kg; the intrinsic clearance, rat liver microsomes is 112 mL/min/kg.
On to `Cc1nnc(-c2ccc(N3CCC(Oc4cc(F)ccc4Cl)CC3)nn2)o1`, for which the MDR1-MDCK efflux ratio stood at 0.65; the fraction unbound, human plasma stood at 0.0145; the intrinsic clearance, human liver microsomes is not above 4.74 mL/min/kg.
With `CCc1nc2c(C)cc(N3CCN(CC(=O)N4CC(O)C4)CC3)cn2c1N(C)c1nc(-c2ccc(F)cc2)c(C#N)s1`, the MDR1-MDCK efflux ratio worked out at 97.9; the fraction unbound, human plasma was determined as 0.00624; the fraction unbound, rat plasma came out at 0.00368; the intrinsic clearance, human liver microsomes came out at 108 mL/min/kg. The compound further returned an intrinsic clearance, rat liver microsomes of 557 mL/min/kg and an aqueous solubility of 60.3 µg/mL (≈ 102 µM).
`COc1cc(/C=C2\CCCN([C@@H](C)c3ccc(F)cc3)C2=O)ccc1-n1cnc(C)c1`: the MDR1-MDCK efflux ratio was determined as 1.48; the intrinsic clearance, human liver microsomes was determined as 44.4 mL/min/kg; the intrinsic clearance, rat liver microsomes stood at 83.1 mL/min/kg; the aqueous solubility worked out at 12.9 µg/mL (≈ 30.8 µM).
On to `Cc1cc(Cl)n(-c2ccc(C#N)cc2)n1`, for which the MDR1-MDCK efflux ratio came to 0.465; the intrinsic clearance, human liver microsomes was 105 mL/min/kg; the intrinsic clearance, rat liver microsomes came out at 310 mL/min/kg.
The matching figures for `OCc1cnnn1-c1cncc(Cl)n1`: 0.648, not above 4.74 mL/min/kg and not above 10.7 mL/min/kg.
Take `COc1cncc(-c2ccnc3[nH]ccc23)c1`: the MDR1-MDCK efflux ratio was 0.671; the intrinsic clearance, human liver microsomes turned out to be 67.1 mL/min/kg; the intrinsic clearance, rat liver microsomes was determined as 105 mL/min/kg; the aqueous solubility is 24 µg/mL (≈ 107 µM).
Take `O=C(COc1cccc(-n2cncn2)c1)N1CCc2ccccc21`: the intrinsic clearance, human liver microsomes was 37.8 mL/min/kg and the intrinsic clearance, rat liver microsomes was found to be 336 mL/min/kg.
Take `COC1CCN(C(=O)Nc2cc(C(F)(F)F)cc(C(F)(F)F)c2)CC1`: the MDR1-MDCK efflux ratio is 0.476; the intrinsic clearance, human liver microsomes was 60 mL/min/kg; the intrinsic clearance, rat liver microsomes was found to be 158 mL/min/kg; the aqueous solubility is 71.4 µg/mL (≈ 193 µM).
As to `CCN(CC)C(=O)Oc1cccc2cccnc12`, the intrinsic clearance, human liver microsomes was found to be 20.6 mL/min/kg and the intrinsic clearance, rat liver microsomes was 189 mL/min/kg.
For the compound `COc1cc([C@H](CC(=O)O)c2ccc(C)c(CN3C[C@@H](C)Oc4ccccc4S3(=O)=O)c2)cc2nnn(C)c12`, the MDR1-MDCK efflux ratio came out at 99.5.
`Cc1nc(C2CCN(Cc3ccc(C(F)(F)F)cc3)CC2)n[nH]1`: the intrinsic clearance, human liver microsomes amounted to 6 mL/min/kg and the intrinsic clearance, rat liver microsomes is 14.1 mL/min/kg.
Turning to `Cc1ncsc1C(=O)N1CCCCC1c1nc(N)ncc1-c1cccc(C(F)(F)F)c1` (configuration not stated), the MDR1-MDCK efflux ratio came out at 9.17; the fraction unbound, human plasma turned out to be 0.0412; the fraction unbound, rat plasma is 0.0729; the intrinsic clearance, human liver microsomes was 373 mL/min/kg. The same compound yielded an intrinsic clearance, rat liver microsomes of 578 mL/min/kg and an aqueous solubility of 14.3 µg/mL (≈ 32 µM).
For the compound `O=C(c1ccc(Cn2nnc(-c3cccc(F)c3)n2)cc1)N1CCCC1`, the MDR1-MDCK efflux ratio amounted to 0.793; the intrinsic clearance, human liver microsomes turned out to be 12.1 mL/min/kg; the intrinsic clearance, rat liver microsomes is 125 mL/min/kg; the aqueous solubility amounted to 10.8 µg/mL (≈ 30.7 µM).
Take `c1ccc(-c2cn(C3CNC3)nn2)cc1`: the intrinsic clearance, human liver microsomes is not above 4.74 mL/min/kg and the intrinsic clearance, rat liver microsomes is 28.6 mL/min/kg.
Turning to `CS(=O)(=O)NC1CCCN(c2nc3ccccc3o2)C1` (configuration not stated), the MDR1-MDCK efflux ratio worked out at 4.21; the intrinsic clearance, human liver microsomes was not above 4.74 mL/min/kg; the intrinsic clearance, rat liver microsomes worked out at 42.3 mL/min/kg.
In the case of `CN(C)[C@@H]1CN(C(=O)c2cc3ccc(F)cc3[nH]2)C[C@H]1O`, the MDR1-MDCK efflux ratio came out at 4.4; the intrinsic clearance, human liver microsomes was not above 4.74 mL/min/kg; the intrinsic clearance, rat liver microsomes is 121 mL/min/kg; the aqueous solubility was 55.1 µg/mL (≈ 189 µM).
Take `Cc1cccc(NC(=O)N2CCC(N3CC=CC3)CC2)c1Cl`: the MDR1-MDCK efflux ratio came to 0.517; the intrinsic clearance, human liver microsomes is 9.11 mL/min/kg; the intrinsic clearance, rat liver microsomes came out at 1040 mL/min/kg.
The matching figures for `O=c1c2cccnc2ncn1[C@H]1CCN(Cc2ccccc2)C1`: 0.776, not above 4.74 mL/min/kg and 162 mL/min/kg.
The matching figures for `CC(C)Oc1ccc(C#N)cc1NC1CCN(C)CC1`: 2.51, not above 4.74 mL/min/kg and 100 mL/min/kg.
With `Cc1nccn1CCNC(=O)C(C)(C)C`, the MDR1-MDCK efflux ratio worked out at 6.52; the intrinsic clearance, human liver microsomes is not above 4.74 mL/min/kg; the intrinsic clearance, rat liver microsomes is not above 10.7 mL/min/kg; the aqueous solubility was 26.2 µg/mL (≈ 125 µM).
In the same order, the values of `COc1cc(F)ccc1-c1ncccc1NC(=O)C(C)C` are 3.33, not above 4.74 mL/min/kg, 25.7 mL/min/kg and 34.6 µg/mL (≈ 120 µM).
Take `Cc1cccc(NCCN2C(=O)CCC2=O)n1`: the MDR1-MDCK efflux ratio amounted to 0.667; the intrinsic clearance, human liver microsomes was not above 4.74 mL/min/kg; the intrinsic clearance, rat liver microsomes came out at 49.9 mL/min/kg.
For `CC(C(O)c1ccc(O)cc1)N1CCC(Cc2ccccc2)CC1` (configuration not stated), the MDR1-MDCK efflux ratio turned out to be 1.08; the intrinsic clearance, human liver microsomes stood at 150 mL/min/kg; the intrinsic clearance, rat liver microsomes was 960 mL/min/kg; the aqueous solubility stood at 51.7 µg/mL (≈ 159 µM).
Regarding `Clc1cccc(Nc2ncnc3[nH]ncc23)c1Cl`, the aqueous solubility turned out to be 3.23 µg/mL (≈ 11.5 µM).
With `OC1(c2cccnc2F)CCN(Cc2ccc(-c3ccc(F)cc3)o2)CC1`, the MDR1-MDCK efflux ratio was determined as 0.57; the intrinsic clearance, human liver microsomes came out at 18.9 mL/min/kg; the intrinsic clearance, rat liver microsomes stood at 170 mL/min/kg.
With `CC(=O)c1c(C)n(S(=O)(=O)c2ccc(C)cc2)c2ccc(NS(=O)(=O)c3ccc(C)cc3)cc12`, the aqueous solubility is 0.53 µg/mL (≈ 1.07 µM).
The compound `Cc1ccc(CN(C)Cc2c(C)noc2C)o1` displayed an intrinsic clearance, human liver microsomes of 27.6 mL/min/kg; an intrinsic clearance, rat liver microsomes of 1270 mL/min/kg; an aqueous solubility of 31.6 µg/mL (≈ 135 µM).
Take `CC(=O)N1CCC[C@H]1C(=O)Nc1cccc(OC(F)F)c1`: the MDR1-MDCK efflux ratio turned out to be 1.42; the intrinsic clearance, human liver microsomes is not above 4.74 mL/min/kg; the intrinsic clearance, rat liver microsomes was found to be 31.4 mL/min/kg; the aqueous solubility is 47 µg/mL (≈ 157 µM).
For the compound `CC(C)(C)c1cnc(CN2CCC(=O)Nc3cc(F)ccc32)o1`, the MDR1-MDCK efflux ratio came out at 1.92; the intrinsic clearance, human liver microsomes is 98.6 mL/min/kg; the intrinsic clearance, rat liver microsomes was found to be 950 mL/min/kg.
